Assay results taken from patent publication US4287206A, “Halogen derivatives of 8-hydroxycarboxylic acids; the processes for their preparation and medicaments in which they are present” (priority 1978, dated 1981).
Where a name gives a salt, the structure may show the parent alone. Read-outs that look alike come from different tables or passages of the source.

What was measured:
mice [1] = assay: Motor activity in mice (activity meters with photoelectric cells); format: in vivo; conditions: comparison of isomers; 32 mg/kg orally; in particular stimulant action
Description: The motor activity was determined with the aid of activity meters having photoelectric cells (Boissier and Simon, Arch. int. Pharmacodyn. 1965, 158, 212-221). A minimum of 10 animals was always used per batch.
The mice are placed in the activity meter just after the oral or intraperitoneal administration of the product acccording to the invention, obtained in accordance with Example I. The motor activity is measured as from the introduction into the activity meter up to the 60th minute. The counters are read after 30 minutes, then reset to 0 and read every 10 minutes for 30 minutes.

rats [2] = assay: Influence of alpha-methyltyrosine on the stereotypies caused in rats; format: in vivo; conditions: alpha-methyltyrosine 64 mg.kg^-1 i.p. 150 min before Example III 8 mg.kg^-1 i.p.
Description: (§1) The tests were carried out on batches of 6 rats for each dose; immediately after the oral or intraperitoneal administration, the animals are placed in individual, transparent plastic 20×10×10 cm boxes provided with a pierced stainless steel lid. The stereotyped movements are rated from 0 to 3, in accordance with the method described by Simon and Chermat (J. Pharmacol. (Paris), 1972, 3, 235-238) every 10 minutes until they disappear in all the animals. The detailed curves are plotted and the surface area of the curve is calculated as described in the above reference.
(b) Influence of alpha-methyltyrosine
At time 0, the animals receive, by intraperitoneal administration, either distilled water or alphamethyltyrosine at a dose of 64 mg.kg^-1; after 150 minutes, they receive, by intraperitoneal administration, the medicament according to the invention, obtained in accordance with Example III, at a dose of 8 mg.kg^-1.
The animals are observed under the conditions described above in the study of the stereotypies in rats.

rats [3] = assay: Influence of pimozide on the stereotypies caused in rats; format: in vivo; conditions: pimozide 1 mg.kg^-1 i.p. 30 min before Example III 8 mg.kg^-1 i.p.
Description: as §1
Research into the antagonistic effects of the stereotypies caused in rats by the medicament according to the invention
(a) Influence of pimozide
At time 0, pimozide (1 mg.kg^-1) or distilled water is administered intraperitoneally; after 30 minutes, all the animals receive, by intraperitoneal administration, the medicament according to the invention, obtained in accordance with Example III (8 mg.kg^-1). The stereotypies are assessed as described above. The surface area of the curve of the stereotypies is calculated.

mice [4] = assay: Action on the toxicity of yohimbine to mice; format: in vivo; conditions: yohimbine hydrochloride 25 mg.kg^-1 s.c.
Description: Action on the toxicity of yohimbine to mice
At time 0, the mice receive, by oral administration, either distilled water or the medicament according to the invention; after 30 minutes, yohimbine hydrochloride (25 mg.kg^-1) is administered subcutaneously to the mice. The mortality is followed every hour for 4 hours and then recorded after 24 hours.

mice [5] = assay: Anti-oxotremorine activity in mice (hypothermia induced by oxotremorine); format: in vivo; conditions: at the doses studied, oral or intraperitoneal
Description: Anti-oxotremorine activity in mice
At time 0, the mice receive oxotremorine (0.5 mg.kg^-1) by intraperitoneal administration; after 30 minutes, either distilled water or the medicament according to the invention, obtained in accordance with Example I, is administered to the mice intraperitoneally or orally.
The mice are then observed and the trembling is rated from 0 to 3 as a function of its intensity, every 10 minutes for 30 minutes. Moreover, the existence of peripheral symptoms (tears, hypersialosis and defections) is observed for 2 hours, in the presence or absence of trembling. The rectal temperature is measured every 30 minutes for 2 hours, after administration of oxotremorine.

rats [6] = assay: Study of the stereotypies in rats; format: in vivo; conditions: rats
Description: Study of the stereotypies in rats
as §1

mice [7] = assay: Anti-reserpine activity in mice (reserpine hypothermia); format: in vivo; conditions: Table IIb, reserpine 2.5 mg.kg^-1 i.p. 4 h before
Description: Anti-reserpine activity in mice
At time 0, the mice receive reserpine (2.5 mg.kg^-1) by intraperitoneal administration.
After 4 hours, when the hypothermia is significant (30 to 31°C.), the substance to be studied is administered intraperitoneally or orally. The rectal temperature is measured, using a probe, carrying a thermoelectric couple, inserted to a constant depth, every 30 minutes for 2 hours.

[8] = Determination of the acute toxicity to mice (BEHRENS and KARBER); conditions: mouse, in vivo
Description: All the experiments reported below were carried out on male rats having a weight of between 170 and 220 g (Wistar AF strain) and male mice having a weight of between 18 and 23 g (Swiss NMRI strain), unless otherwise stated in the following text.
Determination of the acute toxicity to mice
Method used: BEHRENS and KARBER

## CC1CC(c2ccc(Cl)cc2)C(c2ccccc2)C(=O)O1 (stereo not drawn) [100% of β, Trans-4-(4'-chlorophenyl)-6-methyl-3phenyl-3,4,5,6-tetrahydropyrone-2, IIIβ]
Mice [1]
  activity compared with the mixture of 80 % of α and 20 % of β: more active

## C[C@](N)(Cc1ccc(O)cc1)C(=O)O [alpha-methyltyrosine, reference compound]
Rats [2]
  effect of pre-treatment with alpha-methyltyrosine on the stereotypies caused by the medicament: virtually unmodified

## O=c1[nH]c2ccccc2n1C1CCN(CCCC(c2ccc(F)cc2)c2ccc(F)cc2)CC1 [pimozide, reference compound]
Rats [3]
  effect of pimozide on the stereotypies caused by the medicament: very significantly antagonizes the stereotypies

## Threo-2-(4'-chlorophenyl)-4-hydroxy-1-phenylpentanecarbonitrile [Example II]
Mice [4]; Table Va, 2 mg/kg oral, 4 hours
  Mortality in % after the administration of yohimbine: 0%
Mice [4]; Table Va, 2 mg/kg oral, 24 hours
  Mortality in % after the administration of yohimbine: 0%
Mice [4]; Table Va, 4 mg/kg oral, 4 hours
  Mortality in % after the administration of yohimbine: 0%
Mice [4]; Table Va, 4 mg/kg oral, 24 hours
  Mortality in % after the administration of yohimbine: 0%
Mice [4]; Table Va, 8 mg/kg oral, 4 hours
  Mortality in % after the administration of yohimbine: 10%
Mice [4]; Table Va, 8 mg/kg oral, 24 hours
  Mortality in % after the administration of yohimbine: 10%
Mice [4]; Table Va, 16 mg/kg oral, 4 hours
  Mortality in % after the administration of yohimbine: 20%
Mice [4]; Table Va, 16 mg/kg oral, 24 hours
  Mortality in % after the administration of yohimbine: 20%
Mice [4]; Table Va, 32 mg/kg oral, 4 hours
  Mortality in % after the administration of yohimbine: 25%
Mice [4]; Table Va, 32 mg/kg oral, 24 hours
  Mortality in % after the administration of yohimbine: 25%
Mice [4]; Table Va, 64 mg/kg oral, 4 hours
  Mortality in % after the administration of yohimbine: 30%
Mice [4]; Table Va, 64 mg/kg oral, 24 hours
  Mortality in % after the administration of yohimbine: 30%
Mice [4]; Table Va, 128 mg/kg oral, 4 hours
  Mortality in % after the administration of yohimbine: 60%
Mice [4]; Table Va, 128 mg/kg oral, 24 hours
  Mortality in % after the administration of yohimbine: 60%
Mice [4]; Table Va, 256 mg/kg oral, 4 hours
  Mortality in % after the administration of yohimbine: 70%
Mice [4]; Table Va, 256 mg/kg oral, 24 hours
  Mortality in % after the administration of yohimbine: 70%
Mice [5]
  trembling and peripheral symptoms caused by oxotremorine: did not cause any modification
Rats [6]; figure
  stereotypy activity, oral versus intraperitoneal administration: slightly greater on oral administration
Rats [6]; mean surface area of the curve (figure)
  dose from which very significant stereotypies are present: ≥ 8 mg/kg

## CC(O)CC(c1ccc(Cl)cc1)C(C(=O)O)c1ccccc1 (centres unmarked) [product IV, sodium salt of 3-(4'-chlorophenyl)-5-hydroxy-2-phenylhexanoic acid]
Mice [4]; Table Vb, 2 mg/kg administered orally, 4 hours
  Mortality in % after the administration of yohimbine: 10%
Mice [4]; Table Vb, 2 mg/kg administered orally, 24 hours
  Mortality in % after the administration of yohimbine: 10%
Mice [4]; Table Vb, 4 mg/kg administered orally, 4 hours
  Mortality in % after the administration of yohimbine: 20%
Mice [4]; Table Vb, 4 mg/kg administered orally, 24 hours
  Mortality in % after the administration of yohimbine: 20%
Mice [4]; Table Vb, 8 mg/kg administered orally, 4 hours
  Mortality in % after the administration of yohimbine: 30%
Mice [4]; Table Vb, 8 mg/kg administered orally, 24 hours
  Mortality in % after the administration of yohimbine: 30%
Mice [4]; Table Vb, 16 mg/kg administered orally, 4 hours
  Mortality in % after the administration of yohimbine: 70%
Mice [4]; Table Vb, 16 mg/kg administered orally, 24 hours
  Mortality in % after the administration of yohimbine: 70%
Mice [4]; Table Vb, 32 mg/kg administered orally, 4 hours
  Mortality in % after the administration of yohimbine: 80%
Mice [4]; Table Vb, 32 mg/kg administered orally, 24 hours
  Mortality in % after the administration of yohimbine: 80%
Mice [4]; Table Vb, 64 mg/kg administered orally, 4 hours
  Mortality in % after the administration of yohimbine: 100%
Mice [4]; Table Vb, 64 mg/kg administered orally, 24 hours
  Mortality in % after the administration of yohimbine: 100%
Mice [4]; Table Vb, 128 mg/kg administered orally, 4 hours
  Mortality in % after the administration of yohimbine: 80%
Mice [4]; Table Vb, 128 mg/kg administered orally, 24 hours
  Mortality in % after the administration of yohimbine: 80%
Mice [4]; Table Vb, 256 mg/kg administered orally, 4 hours
  Mortality in % after the administration of yohimbine: 100%
Mice [4]; Table Vb, 256 mg/kg administered orally, 24 hours
  Mortality in % after the administration of yohimbine: 100%
Mice [7]; 8 mg/kg oral, 30 min
  Rectal temperatures °C. ± SD: 30.9 ± 0.36 °C
Mice [7]; 8 mg/kg oral, 60 min
  Rectal temperatures °C. ± SD: 32.0 ± 0.56 °C
Mice [7]; 8 mg/kg oral, 90 min
  Rectal temperatures °C. ± SD: 32.2 ± 0.57 °C
Mice [7]; 8 mg/kg oral, 120 min
  Rectal temperatures °C. ± SD: 33.2 ± 0.56 °C
Mice [7]; 16 mg/kg oral, 30 min
  Rectal temperatures °C. ± SD: 31.1 ± 0.39 °C
Mice [7]; 16 mg/kg oral, 60 min
  Rectal temperatures °C. ± SD: 32.5 ± 0.60 °C
Mice [7]; 16 mg/kg oral, 90 min
  Rectal temperatures °C. ± SD: 32.7 ± 0.51 °C
Mice [7]; 16 mg/kg oral, 120 min
  Rectal temperatures °C. ± SD: 33.1 ± 0.43 °C
Mice [7]; 32 mg/kg oral, 30 min
  Rectal temperatures °C. ± SD: 31.3 ± 0.31 °C
Mice [7]; 32 mg/kg oral, 60 min
  Rectal temperatures °C. ± SD: 33.0 ± 0.44 °C
Mice [7]; 32 mg/kg oral, 90 min
  Rectal temperatures °C. ± SD: 33.7 ± 0.41 °C
Mice [7]; 32 mg/kg oral, 120 min
  Rectal temperatures °C. ± SD: 33.2 ± 0.38 °C
Mice [7]; 64 mg/kg oral, 30 min
  Rectal temperatures °C. ± SD: 32.8 ± 0.40 °C
Mice [7]; 64 mg/kg oral, 60 min
  Rectal temperatures °C. ± SD: 34.3 ± 0.32 °C
Mice [7]; 64 mg/kg oral, 90 min
  Rectal temperatures °C. ± SD: 34.5 ± 0.38 °C
Mice [7]; 64 mg/kg oral, 120 min
  Rectal temperatures °C. ± SD: 34.4 ± 0.41 °C
[8]; ip, intraperitoneal, read-out: LD50 (intraperitoneal administration)
  LD50: 160 mg/kg
[8]; oral, read-out: LD50 (oral administration)
  LD50: 310 mg/kg
